The results in this text go back to article PMC10518255, “A first-in-class pan-lysyl oxidase inhibitor impairs stromal remodeling and enhances gemcitabine response and survival in pancreatic cancer” (Nature Cancer, 2023).

The subject of this experiment is Ki67. The experiment can be described thus: Immunohistochemistry of end-point KPC tumors: proliferating cells. Type of experiment: in vivo, mouse. Particulars: KPC tumors at end point. As for the experimental part: All tissues or matrices, including patient TMAs, were fixed in 10% buffered formalin and embedded in paraffin. The 4-μm sections of samples were deparaffinized with xylene and rehydrated in graded ethanol washes. For immunohistochemistry, Bond Dewax Solution (AR9222) was used. Antigen retrieval was performed using Bond RX H2(30) protocol: HIER 30 min ER1 (citrate pH 6) OR ER2 (EDTA pH 9) at 100 °C. Slides were quenched in BOND Polymer Refine Detection (Leica Biosystems DS9800). […] Slides were digitized on an Aperio slide scanner and representative areas per tumor acquired and analyzed by researchers blinded to the conditions of the experiment.
Extended Data Fig. 6 PXS-5505 in combination with gemcitabine in a KPC model. a. Quantification of proliferating cells (Ki67 positive nuclear staining) in KPC tumors at end point, treated as indicated. 5 fields of view (500 μm × 500 μm) per mouse and 10 mice per cohort were scored. […] Quantification of percent coverage of αSMA positive staining in KPC tumors at end point, treated as indicated. 3 fields of view (1000 μm × 1000 μm) per mouse and 10 mice per cohort were scored. […] Quantification of percent coverage of PDGFR-ß positive staining in KPC tumors at end point, treated as indicated. 3 fields of view (1000 μm × 1000 μm) per mouse and 10 mice per cohort were scored. […] 3 fields of view (500 μm × 500 μm) per mouse and 10 mice per cohort were scored. […]

Molecules are shown by their SMILES.

For the compound `Nc1ccn([C@@H]2O[C@H](CO)[C@@H](O)C2(F)F)c(=O)n1` [Gem, gemcitabine], the “Ki67 positive tumor cells” value is recorded as “significantly decreasing the number of Ki67 positive tumor cells”.
